Laboratory results reported in publication PMC12090182, “Repurposing of the RIPK1-Selective Benzo[1,4]oxazepin-4-one Scaffold for the Development of a Type III LIMK1/2 Inhibitor” (ACS Chemical Biology, 2025).

Tests used:
Format in all cases: cell-based
Conditions in all cases: HEK-293T; 1 μM inhibitor, HEK293T cells
AURKC = AURKC (Homo sapiens, UniProt Q9UQB9)
Method: (§1) For plate preparation, a transfection mix was prepared in white 384-well small-volume plates (Greiner, cat. no. 784075) by preplating 3 μL of 20 μL/mL FuGene HD (Promega, cat. no. E2311), diluted in an Opti-MEM medium (Gibco, cat. no. 11058-021). One μL of DNA from both DNA vector source plates of the K192 kit was added using an Echo 550 acoustic dispenser (Beckman Coulter). The mix was incubated for 30 min, and 6 μL of HEK293T cells in an Opti-MEM medium was added. The proteins were allowed to express for 20 h. After expression, Tracer K10 was added using the concentrations recommended in the K192 technical manual and a 1 μM inhibitor was added to every second well. […] Five μL of substrate solution was added to every well, and filtered luminescence was measured on a PHERAstar plate reader (BMG Labtech) equipped with a luminescence filter pair (450 nm BP filter (donor) and a 610 nm LP filter (acceptor)). For every kinase, occupancy was calculated and plotted using GraphPad Prism 10 (Table S5).

BRSK1 = BRSK1 (Homo sapiens, UniProt Q8TDC3)
Method: as §1

BRSK2 = BRSK2 (Homo sapiens, UniProt Q8IWQ3)
Method: as §1

CDK14 = CDK14 (Homo sapiens, UniProt O94921)
Method: as §1

CDKL2 = CDKL2 (Homo sapiens, UniProt Q92772)
Method: as §1

ERN1 = ERN1 (Homo sapiens, UniProt O75460)
Method: as §1

HIPK3 = HIPK3 (Homo sapiens, UniProt Q9H422)
Method: as §1

ICK = ICK (Homo sapiens, UniProt Q9UPZ9)
Method: as §1

LATS1 = LATS1 (Homo sapiens, UniProt O95835)
Method: as §1

MAP4K5 = MAP4K5 (Homo sapiens, UniProt Q9Y4K4)
Method: as §1

MAPK14 = MAPK14 (Homo sapiens, UniProt Q16539)
Method: as §1

MAPK4 = MAPK4 (Homo sapiens, UniProt P31152)
Method: as §1

MAPK6 = MAPK6 (Homo sapiens, UniProt Q16659)
Method: as §1

MAPK9 = MAPK9 (Homo sapiens, UniProt P45984)
Method: as §1

MAST3 = MAST3 (Homo sapiens, UniProt O60307)
Method: as §1

NEK2 = NEK2 (Homo sapiens, UniProt P51955)
Method: as §1

PAK4 = PAK4 (Homo sapiens, UniProt O96013)
Method: as §1

PRKX = PRKX (Homo sapiens, UniProt P51817)
Method: as §1

RIPK1 = biological target: T1, RIPK1 (Homo sapiens, UniProt Q13546)
T1 construct: full-length LIMK1/2, RIPK1, BTK, and LRRK2 cloned in a frame in a NanoLuc-vector (Promega); host or cells: HEK293T
T1 sequence (Q13546 1-671): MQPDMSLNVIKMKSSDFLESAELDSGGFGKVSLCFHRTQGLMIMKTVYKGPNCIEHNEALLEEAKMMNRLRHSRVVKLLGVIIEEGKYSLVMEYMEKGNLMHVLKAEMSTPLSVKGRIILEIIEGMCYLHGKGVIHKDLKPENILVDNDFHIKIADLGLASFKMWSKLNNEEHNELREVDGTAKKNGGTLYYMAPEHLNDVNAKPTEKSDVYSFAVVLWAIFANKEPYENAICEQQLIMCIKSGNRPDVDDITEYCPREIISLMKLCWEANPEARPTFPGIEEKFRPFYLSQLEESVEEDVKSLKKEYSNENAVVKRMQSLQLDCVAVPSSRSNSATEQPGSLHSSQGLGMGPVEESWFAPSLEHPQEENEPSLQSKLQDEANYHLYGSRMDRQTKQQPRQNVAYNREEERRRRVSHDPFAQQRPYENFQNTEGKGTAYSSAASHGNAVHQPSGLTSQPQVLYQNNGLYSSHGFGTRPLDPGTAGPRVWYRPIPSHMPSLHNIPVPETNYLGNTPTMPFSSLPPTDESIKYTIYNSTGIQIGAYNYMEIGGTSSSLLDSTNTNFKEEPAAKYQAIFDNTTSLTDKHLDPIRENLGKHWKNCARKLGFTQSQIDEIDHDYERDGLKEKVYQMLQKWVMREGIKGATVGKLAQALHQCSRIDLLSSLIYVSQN
Method: as §1

RPS6KA6 = RPS6KA6 (Homo sapiens, UniProt Q9UK32)
Method: as §1

STK16 = STK16 (Homo sapiens, UniProt O75716)
Method: as §1

STK3 = STK3 (Homo sapiens, UniProt Q13188)
Method: as §1

STK33 = STK33 (Homo sapiens, UniProt Q9BYT3)
Method: as §1

STK35 = STK35 (Homo sapiens, UniProt Q8TDR2)
Method: as §1

STK36 = STK36 (Homo sapiens, UniProt Q9NRP7)
Method: as §1

TBK1 = TBK1 (Homo sapiens, UniProt Q9UHD2)
Method: as §1

TLK1 = TLK1 (Homo sapiens, UniProt Q9UKI8)
Method: as §1

Sequence of AURKC (Q9UQB9 whole entry): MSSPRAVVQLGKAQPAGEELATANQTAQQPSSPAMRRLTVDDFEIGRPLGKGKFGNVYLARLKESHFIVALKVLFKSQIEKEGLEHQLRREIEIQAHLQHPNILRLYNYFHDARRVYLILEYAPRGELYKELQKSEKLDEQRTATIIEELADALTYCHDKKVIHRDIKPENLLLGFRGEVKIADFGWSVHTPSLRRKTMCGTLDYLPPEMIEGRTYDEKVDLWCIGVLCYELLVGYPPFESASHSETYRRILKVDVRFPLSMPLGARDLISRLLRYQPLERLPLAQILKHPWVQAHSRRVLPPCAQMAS
Sequence of STK16 (O75716 whole entry): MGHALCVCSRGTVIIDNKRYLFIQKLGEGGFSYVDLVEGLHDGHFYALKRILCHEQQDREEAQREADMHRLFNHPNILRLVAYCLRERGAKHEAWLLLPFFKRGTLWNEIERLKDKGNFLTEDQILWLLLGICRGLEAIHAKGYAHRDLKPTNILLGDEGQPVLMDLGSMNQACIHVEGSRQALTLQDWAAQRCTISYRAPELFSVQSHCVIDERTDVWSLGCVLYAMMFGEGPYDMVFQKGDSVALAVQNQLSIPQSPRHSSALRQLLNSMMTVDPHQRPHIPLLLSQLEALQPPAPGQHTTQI
Sequence of MAST3 (O60307 whole entry): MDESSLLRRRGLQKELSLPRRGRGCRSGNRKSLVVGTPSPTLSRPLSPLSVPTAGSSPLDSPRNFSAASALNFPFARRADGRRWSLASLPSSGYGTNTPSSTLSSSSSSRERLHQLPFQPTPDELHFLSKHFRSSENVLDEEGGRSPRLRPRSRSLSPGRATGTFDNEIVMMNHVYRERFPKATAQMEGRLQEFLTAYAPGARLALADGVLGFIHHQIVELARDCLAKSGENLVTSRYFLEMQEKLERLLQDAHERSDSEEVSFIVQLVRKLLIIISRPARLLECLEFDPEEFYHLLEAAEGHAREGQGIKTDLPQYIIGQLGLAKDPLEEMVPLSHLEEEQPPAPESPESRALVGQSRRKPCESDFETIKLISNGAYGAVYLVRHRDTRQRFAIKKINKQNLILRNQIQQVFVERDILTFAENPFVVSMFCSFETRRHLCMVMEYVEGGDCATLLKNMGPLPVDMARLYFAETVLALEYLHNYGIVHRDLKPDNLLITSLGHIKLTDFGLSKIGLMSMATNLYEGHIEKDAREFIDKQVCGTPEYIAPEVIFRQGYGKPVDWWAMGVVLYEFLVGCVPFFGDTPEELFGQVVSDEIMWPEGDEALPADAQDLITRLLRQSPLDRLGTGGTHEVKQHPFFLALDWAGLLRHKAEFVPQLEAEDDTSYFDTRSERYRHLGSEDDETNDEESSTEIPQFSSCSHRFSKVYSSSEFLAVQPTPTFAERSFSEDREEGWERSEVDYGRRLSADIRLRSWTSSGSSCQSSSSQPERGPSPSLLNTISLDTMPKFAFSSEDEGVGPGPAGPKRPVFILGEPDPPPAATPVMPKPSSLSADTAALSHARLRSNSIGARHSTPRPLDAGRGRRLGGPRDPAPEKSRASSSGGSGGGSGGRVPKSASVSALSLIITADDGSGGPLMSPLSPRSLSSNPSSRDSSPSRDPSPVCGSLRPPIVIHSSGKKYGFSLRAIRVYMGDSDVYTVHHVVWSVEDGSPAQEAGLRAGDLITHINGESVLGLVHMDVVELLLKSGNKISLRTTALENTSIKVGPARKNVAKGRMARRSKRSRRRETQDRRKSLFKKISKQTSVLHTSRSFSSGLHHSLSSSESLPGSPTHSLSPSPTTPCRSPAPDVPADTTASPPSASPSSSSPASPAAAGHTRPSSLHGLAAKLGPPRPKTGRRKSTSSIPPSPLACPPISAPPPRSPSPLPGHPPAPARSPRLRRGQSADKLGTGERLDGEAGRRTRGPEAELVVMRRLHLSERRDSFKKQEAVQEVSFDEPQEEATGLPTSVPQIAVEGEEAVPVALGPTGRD
Sequence of STK36 (Q9NRP7 whole entry): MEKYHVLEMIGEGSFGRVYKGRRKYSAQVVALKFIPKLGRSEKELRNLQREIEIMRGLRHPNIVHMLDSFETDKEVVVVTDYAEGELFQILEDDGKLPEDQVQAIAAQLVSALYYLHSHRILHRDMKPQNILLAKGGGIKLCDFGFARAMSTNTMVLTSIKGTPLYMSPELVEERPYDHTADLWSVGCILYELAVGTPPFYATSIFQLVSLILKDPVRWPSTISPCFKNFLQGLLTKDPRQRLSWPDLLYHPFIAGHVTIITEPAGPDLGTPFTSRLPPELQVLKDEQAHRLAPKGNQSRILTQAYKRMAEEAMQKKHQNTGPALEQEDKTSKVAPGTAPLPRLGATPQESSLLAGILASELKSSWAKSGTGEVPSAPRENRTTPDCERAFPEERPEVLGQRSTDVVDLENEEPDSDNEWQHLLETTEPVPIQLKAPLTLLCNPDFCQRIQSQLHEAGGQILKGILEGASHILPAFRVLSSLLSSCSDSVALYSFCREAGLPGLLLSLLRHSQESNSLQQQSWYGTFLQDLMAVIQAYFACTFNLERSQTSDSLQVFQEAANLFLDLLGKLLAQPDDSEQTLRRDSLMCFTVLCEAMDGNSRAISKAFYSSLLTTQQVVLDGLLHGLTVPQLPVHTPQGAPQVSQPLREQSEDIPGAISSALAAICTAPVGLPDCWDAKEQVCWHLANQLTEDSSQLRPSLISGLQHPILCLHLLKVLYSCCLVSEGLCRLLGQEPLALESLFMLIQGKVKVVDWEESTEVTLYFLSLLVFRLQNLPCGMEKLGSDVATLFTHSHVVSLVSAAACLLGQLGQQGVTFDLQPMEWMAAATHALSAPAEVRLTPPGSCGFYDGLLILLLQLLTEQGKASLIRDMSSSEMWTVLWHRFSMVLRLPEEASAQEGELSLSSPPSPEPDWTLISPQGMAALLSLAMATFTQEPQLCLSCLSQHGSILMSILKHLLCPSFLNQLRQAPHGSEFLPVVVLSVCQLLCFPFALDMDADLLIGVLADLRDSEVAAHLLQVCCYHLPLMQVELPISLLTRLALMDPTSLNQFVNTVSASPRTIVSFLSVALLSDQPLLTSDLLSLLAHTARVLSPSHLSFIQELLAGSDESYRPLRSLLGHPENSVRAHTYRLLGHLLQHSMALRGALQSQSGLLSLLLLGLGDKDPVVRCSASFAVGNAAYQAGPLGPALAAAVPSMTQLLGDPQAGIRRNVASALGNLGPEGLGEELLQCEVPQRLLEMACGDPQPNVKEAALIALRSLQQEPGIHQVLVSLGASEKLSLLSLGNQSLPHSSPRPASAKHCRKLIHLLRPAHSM
Sequence of TBK1 (Q9UHD2 whole entry): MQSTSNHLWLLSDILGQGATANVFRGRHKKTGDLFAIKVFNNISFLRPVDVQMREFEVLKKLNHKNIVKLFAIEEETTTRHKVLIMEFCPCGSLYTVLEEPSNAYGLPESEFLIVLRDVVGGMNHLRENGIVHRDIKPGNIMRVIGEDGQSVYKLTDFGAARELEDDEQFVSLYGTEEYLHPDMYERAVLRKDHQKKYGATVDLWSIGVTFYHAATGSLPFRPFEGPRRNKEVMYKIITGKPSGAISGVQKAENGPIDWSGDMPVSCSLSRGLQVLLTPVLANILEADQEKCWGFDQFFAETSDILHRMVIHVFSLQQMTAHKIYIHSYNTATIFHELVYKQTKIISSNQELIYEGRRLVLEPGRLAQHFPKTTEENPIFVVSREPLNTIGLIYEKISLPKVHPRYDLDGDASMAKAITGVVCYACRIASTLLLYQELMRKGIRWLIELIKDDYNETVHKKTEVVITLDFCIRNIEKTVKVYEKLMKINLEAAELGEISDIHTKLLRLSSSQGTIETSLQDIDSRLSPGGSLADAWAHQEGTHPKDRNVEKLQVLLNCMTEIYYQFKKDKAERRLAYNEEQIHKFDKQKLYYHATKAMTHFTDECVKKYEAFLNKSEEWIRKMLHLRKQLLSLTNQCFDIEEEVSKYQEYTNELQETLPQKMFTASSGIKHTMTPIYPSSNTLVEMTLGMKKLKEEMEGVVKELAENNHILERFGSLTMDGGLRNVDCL
Sequence of MAPK14 (Q16539 whole entry): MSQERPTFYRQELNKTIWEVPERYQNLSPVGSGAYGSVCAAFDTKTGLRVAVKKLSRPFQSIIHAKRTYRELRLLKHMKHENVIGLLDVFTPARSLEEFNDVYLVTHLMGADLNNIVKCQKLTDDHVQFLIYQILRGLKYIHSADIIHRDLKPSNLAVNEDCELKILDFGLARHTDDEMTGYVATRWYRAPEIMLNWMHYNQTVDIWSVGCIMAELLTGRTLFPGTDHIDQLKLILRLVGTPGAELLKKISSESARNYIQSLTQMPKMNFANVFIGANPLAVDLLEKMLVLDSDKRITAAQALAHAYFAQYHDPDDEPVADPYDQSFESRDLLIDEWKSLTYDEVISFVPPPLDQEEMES
Sequence of STK3 (Q13188 whole entry): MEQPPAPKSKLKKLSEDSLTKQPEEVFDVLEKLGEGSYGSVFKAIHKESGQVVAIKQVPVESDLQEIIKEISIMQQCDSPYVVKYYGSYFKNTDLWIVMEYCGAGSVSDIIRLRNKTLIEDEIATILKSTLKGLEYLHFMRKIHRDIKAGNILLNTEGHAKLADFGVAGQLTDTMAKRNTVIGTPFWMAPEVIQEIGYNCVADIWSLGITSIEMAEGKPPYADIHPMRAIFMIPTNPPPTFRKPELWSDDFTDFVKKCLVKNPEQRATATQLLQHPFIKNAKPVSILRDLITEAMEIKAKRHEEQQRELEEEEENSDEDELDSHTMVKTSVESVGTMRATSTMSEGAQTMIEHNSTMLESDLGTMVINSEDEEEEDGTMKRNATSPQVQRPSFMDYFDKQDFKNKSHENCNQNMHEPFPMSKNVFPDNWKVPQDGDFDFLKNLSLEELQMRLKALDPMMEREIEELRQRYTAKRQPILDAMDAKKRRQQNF

CN1C(=O)[C@@H](N2CCc3c(nn(Cc4ccccc4)c3C(N)=O)C2=O)COc2cc(Cl)ccc21 [Compound 10, (S)-2-benzyl-6-(8-chloro-5-methyl-4-oxo-2,3,4,5-tetrahydrobenzo[b][1,4]oxazepin-3-yl)-7-oxo-4,5,6,7-tetrahydro-2H-pyrazolo[3,4-c]pyridine-3-carboxamide]
receptor occupancy at 1 µM (AURKC): 5.08% | receptor occupancy at 1 µM (BRSK1): 3.37% | receptor occupancy at 1 µM (BRSK2): 2.53% | receptor occupancy at 1 µM (CDK14): 4.07% | receptor occupancy at 1 µM (CDKL2): -3.58% | receptor occupancy at 1 µM (ERN1): -1.52% | receptor occupancy at 1 µM (HIPK3): 11.8% | receptor occupancy at 1 µM (ICK): 3.76% | receptor occupancy at 1 µM (LATS1): -16% | receptor occupancy at 1 µM (MAP4K5): 16.7% | receptor occupancy at 1 µM (MAPK14): 4.38% | receptor occupancy at 1 µM (MAPK4): -10.7% | receptor occupancy at 1 µM (MAPK6): -8.43% | receptor occupancy at 1 µM (MAPK9): -2.07% | receptor occupancy at 1 µM (MAST3): 3.64% | receptor occupancy at 1 µM (NEK2): -8.89% | receptor occupancy at 1 µM (PAK4): 3.71% | receptor occupancy at 1 µM (PRKX): 2.51% | receptor occupancy at 1 µM (RIPK1): 78.4% | receptor occupancy at 1 µM (RPS6KA6): 7.04% | receptor occupancy at 1 µM (STK16): -1.63% | receptor occupancy at 1 µM (STK3): -10.1% | receptor occupancy at 1 µM (STK33): 3.58% | receptor occupancy at 1 µM (STK35): 1.56% | receptor occupancy at 1 µM (STK36): -3.44% | receptor occupancy at 1 µM (TBK1): 2.77% | receptor occupancy at 1 µM (TLK1): 26.6%
